Each block holds one molecule with its values, some of them ahead of it.
Legend:
[1] = Cupric-reducing antioxidant capacity (CUPRAC) assay; conditions: Trolox equivalents
Experimental: (§1) The ferric-reducing antioxidant power (FRAP) assay was carried out according to a previously described method. The cupric-reducing antioxidant capacity (CUPRAC) assay was performed according to literature. Results are expressed as mmoles Trolox equivalents/kg PEE. Catechin was used as a positive control in both assays.

DPPH discoloration assay = assay: DPPH discoloration assay
Experimental: (§2) The scavenging capacity of the G. decorticans PEEs was evaluated against the free radicals DPPH and superoxide anion. The discoloration of the DPPH radical was carried out according to literature. The scavenging of the superoxide anion was evaluated following a previously described method. Results are presented as the amount of extract that is able to scavenge 50% of the radicals (SC50, μg PEE/mL).

[2] = Scavenging of superoxide anion generated by xanthine oxidase; type: biochemical
Experimental: The superoxide anion generated by xanthine oxidase can be scavenged by polyphenols. In this assay, the flavonol catechin was used as a positive control, showing a SC50 of 8.7 ± 0.1 μg/mL. All G. decorticans fruit PEEs were able to scavenge the superoxide anion, with SC50 values between 14.5–44.2 μg/mL, with the exception of the sample from El Transito II that only scavenged 45.1% the radical at 50 μg/mL.
as §2

[3] = Ferric-reducing antioxidant power (FRAP) assay; conditions: Trolox equivalents
Experimental: as §1

COX-1 = target: T1, COX-1 (Ovis aries, UniProt P05979); assay: Cyclooxygenase inhibition, commercial kit (COX-1); type: biochemical; conditions: at 50 μg/mL
T1 construct: purchased Cayman Chemical 560131
T1 sequence (P05979 25-600): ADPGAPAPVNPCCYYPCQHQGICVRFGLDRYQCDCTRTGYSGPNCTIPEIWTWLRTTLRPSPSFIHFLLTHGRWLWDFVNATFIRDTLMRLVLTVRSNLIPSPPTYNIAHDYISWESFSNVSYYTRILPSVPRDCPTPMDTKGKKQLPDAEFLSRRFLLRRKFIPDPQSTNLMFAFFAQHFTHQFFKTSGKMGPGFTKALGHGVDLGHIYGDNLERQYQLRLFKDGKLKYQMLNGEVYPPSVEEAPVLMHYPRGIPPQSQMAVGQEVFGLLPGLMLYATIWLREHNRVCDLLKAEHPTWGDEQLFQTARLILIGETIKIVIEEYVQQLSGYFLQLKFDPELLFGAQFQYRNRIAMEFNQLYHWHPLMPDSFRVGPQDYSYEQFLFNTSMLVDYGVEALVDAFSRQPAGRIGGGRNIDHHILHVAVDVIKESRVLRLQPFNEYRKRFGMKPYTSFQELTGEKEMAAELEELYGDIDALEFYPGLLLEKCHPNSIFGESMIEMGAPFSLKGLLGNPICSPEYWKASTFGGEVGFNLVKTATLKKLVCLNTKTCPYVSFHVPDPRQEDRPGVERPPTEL
Experimental: COX inhibitory activity was determined using a commercial kit (560131, Cayman Chemical, Ann Arbor, MI, USA). Enzyme and samples (50 μg PEE/mL) were pre-incubated during 10 min and then arachidonic acid was added. The reaction was conducted for exactly 2 min at 37 °C and halted in boiling water for 5 min. […] Results were expressed as a percentage of inhibition of PGF2α production. The commercial anti-inflammatory compound nimesulide was included as the reference compound [4].

COX-2 = target: T2, COX-2 (Homo sapiens, UniProt P35354); assay: Cyclooxygenase inhibition, commercial kit (COX-2); type: biochemical; conditions: read-out: COX-2% Inhibition
T2 construct: purchased Cayman Chemical 560131
T2 sequence (P35354 18-604): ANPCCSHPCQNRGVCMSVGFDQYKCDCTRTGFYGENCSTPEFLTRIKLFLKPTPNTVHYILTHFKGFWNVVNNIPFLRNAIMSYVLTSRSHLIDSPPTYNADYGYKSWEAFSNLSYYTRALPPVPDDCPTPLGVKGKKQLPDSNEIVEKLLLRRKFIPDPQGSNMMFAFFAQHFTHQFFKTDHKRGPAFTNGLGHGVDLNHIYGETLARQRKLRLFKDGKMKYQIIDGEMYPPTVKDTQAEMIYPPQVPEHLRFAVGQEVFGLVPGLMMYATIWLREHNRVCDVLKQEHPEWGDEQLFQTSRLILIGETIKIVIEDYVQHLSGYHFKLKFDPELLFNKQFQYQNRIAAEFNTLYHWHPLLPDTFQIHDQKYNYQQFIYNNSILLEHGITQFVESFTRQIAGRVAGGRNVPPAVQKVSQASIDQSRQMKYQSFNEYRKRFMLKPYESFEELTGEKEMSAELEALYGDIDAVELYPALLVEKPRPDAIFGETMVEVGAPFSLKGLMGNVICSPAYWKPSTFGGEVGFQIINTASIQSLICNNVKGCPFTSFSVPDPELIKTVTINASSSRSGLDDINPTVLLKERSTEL
Experimental: Enzyme and samples (50 μg PEE/mL) were pre-incubated during 10 min and then arachidonic acid was added. The reaction was conducted for exactly 2 min at 37 °C and halted in boiling water for 5 min. […] Results were expressed as a percentage of inhibition of PGF2α production.

sPLA2 = target: T3, sPLA2 (Homo sapiens, UniProt P39877); assay: Secretory phospholipase A2 inhibition, colorimetric kit; type: biochemical; conditions: read-out: sPLA2 % Inhibition
T3 construct: purchased Cayman Chemical 10004883
T3 sequence (P39877 21-138): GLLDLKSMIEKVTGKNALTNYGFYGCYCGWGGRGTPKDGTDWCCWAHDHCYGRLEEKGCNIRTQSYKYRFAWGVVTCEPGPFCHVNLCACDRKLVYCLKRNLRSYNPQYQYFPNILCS
Experimental: The sPLA2 inhibitory activity was determined using a colorimetric kit (10004883, Cayman Chemical). Enzyme and samples (200–100 μg PEE/mL) were mixed, and then the substrate (diheptanoyl Thio-PC) was added, and incubated during 15 min at 25 °C. Then, DTNB (Ellman’s reagent) was added and absorbance was read at 415 nm. Results are expressed as a percentage of inhibition or IC50 (μg PEE/mL). Ursolic acid was used as the reference compound [37].

porcine pancreas lipase = target: porcine pancreas lipase; parameters: method as in PMID 28454959; conditions: commercial polyphenol standards; cited from earlier work

Compound: O.Oc1cc(O)c2c(c1)O[C@H](c1ccc(O)c(O)c1)[C@@H](O)C2 [Catechin]
CUPRAC [1]: 13.4 ± 0.3 mmol TE/g PEE
DPPH SC50 (DPPH discoloration assay; Table 1, fruit PEEs): 11.4 ± 1.6 µg/mL
DPPH SC50 (DPPH discoloration assay; Table 4, Diego de Almagro PEE and Sephadex LH-20 fractions): 11.4 ± 1.6 µg/mL
O2 Scavenging SC50 [2]: 8.7 ± 0.1 µg/mL
FRAP [3]: 5.4 ± 0.1 mmol TE/g PEE

inhibition at 50 µg/mL (COX-1): 100%
inhibition at 50 µg/mL (COX-2): 100%
Compound: CS(=O)(=O)Nc1ccc([N+](=O)[O-])cc1Oc1ccccc1 [Nimesulide]

Compound: C[C@H]1[C@H](C)CC[C@]2(C(=O)O)CC[C@]3(C)C(=CC[C@@H]4[C@@]5(C)CC[C@H](O)C(C)(C)[C@@H]5CC[C@]43C)[C@H]12 [Ursolic acid]
inhibition at 50 µg/mL (sPLA2): 26.7 ± 0.7%

Compound: O=C(O[C@@H]1Cc2c(O)cc(O)cc2O[C@@H]1c1cc(O)c(O)c(O)c1)c1cc(O)c(O)c(O)c1 [epigallocatechin gallate]
IC50 (porcine pancreas lipase): 391 µM

Compound: Oc1cc(O)c2c(c1)O[C@H](c1cc(O)c(O)c(O)c1)[C@H](O)C2 [epigallocatechin]
IC50 (porcine pancreas lipase): 237 µM

Compound: O=C(O)c1cc(O)c(O)c(O)c1 [gallic acid]
IC50 (porcine pancreas lipase): 387 µM

— article PMC6151650, “The Native Fruit Geoffroea decorticans from Arid Northern Chile: Phenolic Composition, Antioxidant Activities and In Vitro Inhibition of Pro-Inflammatory and Metabolic Syndrome-Associated Enzymes” (Molecules : A Journal of Synthetic Chemistry and Natural …, 2017)
